Legend:
Assay in all cases: cells
HT-1197 cells = conditions: Homo sapiens, HT1197, 72 h, read-out: IC50 (microM) (HT1197)
Description: (§1) To evaluate the expression status of PBK in several cell lines, western blot analysis was performed using crude cell lysate collected from those cells.
(§2) 100 micro-L of cell suspension was seeded onto 96-well microtiter plate (ViewPlate-96FTC, PerkinElmer). […] Cellular growth was determined using Cell Counting Kit-8 (DOJINDO) at 72 hours after the exposure of the candidate inhibitors. […] Accurate IC50 values were calculated as described previously.

T47D cells = conditions: Homo sapiens, 72 h, read-out: IC50 (microM) (T47D)
Description: as §1, §2

BT-549 cells = conditions: Homo sapiens, BT-549, 72 h, read-out: IC50 (microM) (BT549)
Description: as §1, §2

| SMILES | IC50 (HT-1197 cells) [µM] | IC50 (T47D cells) [µM] | IC50 (BT-549 cells) [µM] |
| --- | --- | --- | --- |
| O=C(NCC1CCCNC1)c1ccc(O)c2[nH]c(C3CC3)nc12 (stereo not drawn) [Example 6, 2-Cyclopropyl-4-hydroxy-N-(piperidin-3-yl-methyl)-1H-benzo[d]imidazole-7-carboxamide] | > 100 | 55 | 30 |
| O=C(NCC1CCCCN1)c1ccc(O)c2[nH]c(C3CC3)nc12 (stereo not drawn) [Example 7, 2-Cyclopropyl-4-hydroxy-N-(piperidin-2-ylmethyl)-1H-benzo[d]imidazole-7-carboxamide] | > 100 | 11 | 9.5 |
| O=C(N[C@H]1CCCNC1)c1ccc(O)c2[nH]c(C3CC3)nc12 [Example 9, (S)-2-cyclopropyl-4-hydroxy-N-(piperidin-3-yl)-1H-benzo[d]imidazole-7-carboxamide] | 7.1 | 1.5 | 0.73 |
| O=C(NC1CCNCC1)c1ccc(O)c2[nH]c(C3CC3)nc12 [Example 10, 2-cyclopropyl-4-hydroxy-N-(piperidin-4-yl)-1H-benzo[d]imidazole-7-carboxamide] | > 100 | 19 | 20 |
| O=C(NC1CCCNC1)c1ccc(O)c2[nH]c(C3CC3)nc12 (stereo not drawn) [Example 11, 2-cyclopropyl-4-hydroxy-N-(piperidin-3-yl)-1H-benzo[d]imidazole-7-carboxamide] | 44 | 3.2 | 1.6 |
| O=C(NC1CCNC1)c1ccc(O)c2[nH]c(C3CC3)nc12 (stereo not drawn) [Example 12, 2-cyclopropyl-4-hydroxy-N-(pyrrolidin-3-yl)-1H-benzo[d]imidazole-7-carboxamide] | > 100 | 58 | 47 |
| O=C(NCC1CCCNC1)c1ccc(O)c2[nH]c(C3CCCC3)nc12 (stereo not drawn) [Example 15, 2-Cyclopentyl-4-hydroxy-N-(piperidin-3-ylmethyl)-1H-benzo[d]imidazole-7-carboxamide] | > 100 | 21 | 25 |
| O=C(N[C@H]1CCCNC1)c1ccc(O)c2[nH]c(C3CCCC3)nc12 [Example 16, (S)-2-Cyclopentyl-4-hydroxy-N-(piperidin-3-yl)-1H-benzo[d]imidazole-7-carboxamide] | 19 | 2.6 | 0.37 |
| O=C(NCC1CCCCN1)c1ccc(O)c2[nH]c(-c3ccccc3)nc12 (stereo not drawn) [Example 18, 4-Hydroxy-2-phenyl-N-(piperidin-2-ylmethyl)-1H-benzo[d]imidazole-7-carboxamide] | 98 | 15 | 31 |
| O=C(NC1CCCNC1)c1ccc(O)c2[nH]c(-c3cccs3)nc12 (stereo not drawn) [Example 35, 7-Hydroxy-N-(piperidin-3-yl)-2-(thiophen-2-yl)-1H-benzo[d]imidazole-4-carboxamide] | 49 | 0.81 | 0.77 |
| O=C(N[C@@H]1CCCNC1)c1ccc(O)c2[nH]c(-c3cccs3)nc12 [Example 37, (R)-7-Hydroxy-N-(piperidin-3-yl)-2-(thiophen-2-yl)-1H-benzo[d]imidazole-4-carboxamide] | > 100 | 11 | 20 |
| O=C(N[C@H]1CCCNC1)c1ccc(O)c2[nH]c(-c3cccs3)nc12 [Example 38, (S)-7-Hydroxy-N-(piperidin-3-yl)-2-(thiophen-2-yl)-1H-benzo[d]imidazole-4-carboxamide] | 33 | 0.36 | 0.46 |
| O=C(NCC1CCCNC1)c1ccc(O)c2[nH]c(-c3cccs3)nc12 (stereo not drawn) [Example 39, 7-Hydroxy-N-(piperidin-3-ylmethyl)-2-(thiophen-2-yl)-1H-benzo[d]imidazole-4-carboxamide] | > 100 | 8.6 | 15 |
| O=C(NC1CCNCC1)c1ccc(O)c2[nH]c(-c3cccs3)nc12 [Example 40, 7-Hydroxy-N-(piperidin-4-yl)-2-(thiophen-2-yl)-1H-benzo[d]imidazole-4-carboxamide] | > 100 | 13 | 73 |
| CN1CCCC(NC(=O)c2ccc(O)c3[nH]c(-c4cccs4)nc23)C1 (stereo not drawn) [Example 41, 7-Hydroxy-N-(1-methylpiperidin-3-yl)-2-(thiophen-2-yl)-1H-benzo[d]imidazole-4-carboxamide] | 24 | 9.8 | 8.1 |
| O=C(NC1CCNC1)c1ccc(O)c2[nH]c(-c3cccs3)nc12 (stereo not drawn) [Example 44, 7-Hydroxy-N-(pyrrolidin-3-yl)-2-(thiophen-2-yl)-1H-benzo[d]imidazole-4-carboxamide] | > 100 | 20 | 15 |
| O=C(NCC1CCCCN1)c1ccc(O)c2[nH]c(-c3cccs3)nc12 (stereo not drawn) [Example 45, 7-Hydroxy-N-(piperidin-2-ylmethyl)-2-(thiophen-2-yl)-1H-benzo[d]imidazole-4-carboxamide] | > 100 | 7.8 | 29 |
| N[C@H]1CC[C@H](NC(=O)c2ccc(O)c3[nH]c(-c4cccs4)nc23)CC1 [Example 47, N-(4-Aminocyclohexyl)-7-hydroxy-2-(thiophen-2-yl)-1H-benzo[d]imidazole-4-carboxamide] | 58 | 6.2 | 5.3 |
| O=C(NCC1CCCNC1)c1ccc(O)c2[nH]c(C3CC4CCC3C4)nc12 (stereo not drawn) [Example 48, 2-(Bicyclo[2.2.1]heptan-2-yl)-7-hydroxy-N-(piperidin-3-ylmethyl)-1H-benzo[d]imidazole-4-carboxamide] | ≥ 100 | 49 | 20 |
| O=C(NC1CCCNC1)c1ccc(O)c2[nH]c(C3CC4CCC3C4)nc12 (stereo not drawn) [Example 49, 2-(Bicyclo[2.2.1]heptan-2-yl)-7-hydroxy-N-(piperidin-3-yl)-1H-benzo[d]imidazole-4-carboxamide] | 14 | 4.1 | 0.65 |
| O=C(N[C@H]1CCCNC1)c1ccc(O)c2[nH]c(-c3ccc(Br)s3)nc12 [Example 51, (S)-2-(5-bromothiophen-2-yl)-7-hydroxy-N-(piperidin-3-yl)-1H-benzo[d]imidazole-4-carboxamide] | 5.7 | 0.14 | 0.18 |
| O=C(N[C@H]1CCCNC1)c1ccc(O)c2[nH]c(C3CC4CCC3C4)nc12 (stereo partly drawn) [Example 52, 2-(Bicyclo[2.2.1]heptan-2-yl)-7-hydroxy-N-((S)-piperidin-3-yl)-1H-benzo[d]imidazole-4-carboxamide] | 19 | 2.3 | 0.43 |
| NC12CC3CC(C1)CC(NC(=O)c1ccc(O)c4[nH]c(C5CC6CCC5C6)nc14)(C3)C2 (stereo not drawn) [Example 53] | 24 | 5.2 | 4.6 |
| NC12CC3CC(C1)CC(NC(=O)c1ccc(O)c4[nH]c(-c5cccs5)nc14)(C3)C2 [Example 54, 2-(Thiophene-2-yl)-7-hydroxy-N-(adamantate-3-ylamino)-1H-benzo[d]imidazole-4-carboxamide] | 10 | 1.6 | 3.3 |
| NC1CCCC(NC(=O)c2ccc(O)c3[nH]c(C4CC5CCC4C5)nc23)C1 (stereo not drawn) [Example 55, N-(3-Aminocyclohexyl)-2-(bicyclo[2.2.1]heptan-2-yl)-7-hydroxy-1H-benzo[d]imidazole-4-carboxamide] | 74 | 9.1 | 2.9 |
| N[C@H]1CC[C@@H](CNC(=O)c2ccc(O)c3[nH]c(C4CC5CCC4C5)nc23)CC1 (stereo partly drawn) [Example 56, N-{[(cis)-4-Aminocyclohexyl]methyl}-2-(bicyclo[2.2.1]heptan-2-yl)-7-hydroxy-1H-benzo[d]imidazole-4-carboxamide] | 61 | 30 | 10 |
| O=C(N[C@H]1CCCNC1)c1ccc(O)c2[nH]c(-c3ccc(N4CCNCC4)s3)nc12 [Example 57, (S)-7-hydroxy-2-(5-(piperazin-1-yl)thiophen-2-yl)-N-(piperidin-3-yl)-1H-benzo[d]imidazole-4-carboxamide] | 33 | 1.1 | 1.1 |
| O=C(NC[C@@H]1CCCNC1)c1ccc(O)c2[nH]c(Cc3cccs3)nc12 [Example 58, (R)-7-hydroxy-N-(piperidin-3-ylmethyl)-2-(thiophen-2-ylmethyl)-1H-benzo[d]imidazole-4-carboxamide] | 21 | 24 | 13 |
| O=C(N[C@H]1CCCNC1)c1ccc(O)c2[nH]c(Cc3cccs3)nc12 [Example 59, (S)-7-hydroxy-N-(piperidin-3-yl)-2-(thiophen-2-ylmethyl)-1H-benzo[d]imidazole-4-carboxamide] | 76 | 11 | 2.9 |
| O=C(NC[C@H]1CCCNC1)c1ccc(O)c2[nH]c(Cc3cccs3)nc12 [Example 60, (S)-7-hydroxy-N-(piperidin-3-ylmethyl)-2-(thiophen-2-ylmethyl)-1H-benzo[d]imidazole-4-carboxamide] | 33 | 42 | 49 |

From US20110263566A1 (priority 2008, published 2011)
